Data from patent US10150804B2, “Compositions and methods for imaging cancer” (BRITISH COLUMBIA CANCER AGENCY BRANCH, priority 2014, dated 2018).
Like-named read-outs stand apart in the source and are kept apart here. One block for each molecule: values may come before it.

Assays:
sstr1 = molecular target: T1, sstr1 (Homo sapiens, UniProt P30872); experiment: standard filtration competitive binding assay, sstr1 membranes; conditions: 0.2 nM 125I standard
T1 construct: purchased PerkinElmer; host or cells: Chinese hamster ovary K1 cells (transfected)
Experimental: After successful synthesis, the activity of ^19F-AMBF3-TATE was examined in vitro. Membranes from Chinese hamster ovary K1 cells transfected with sstr1, sstr2, sstr3, sstr5, and [^125I]-Tyr-somatostatin-14 were obtained from PerkinElmer. […] Briefly, membranes ([…]) were incubated with the ^125I-labelled standard at a concentration of 0.05 nM for sstr2 or 0.2 nM for other subtypes. […] After incubation (37° C., 1 h), the wells were aspirated and washed 8 times with 50 mM ice-cold buffer (Tris-HCl, pH 7.4) over grade GF/B filters. The filters were removed and counted by a γ counter (Cobra II; Packard). Data were fitted to a 1-site competition model (GraphPad Prism 6.1 software) to calculate Ki.

[1] = 19F-NMR kinetic analysis of solvolysis/defluoridation of AMBF3; type: physicochemical
Experimental: Data are scaled 1000,000 min.

[2] = test system: AR42J tumour-bearing mice; conditions: excess competitor 69/71Ga-DOTATATE
Experimental: After labelling, imaging was undertaken. […] Rat pancreatic adenocarcinoma cells (10^7 AR42J cells) were freshly expanded in a mixture of phosphate-buffered saline and Matrigel (Corning) and inoculated subcutaneously in female immunocompromised mice (NOD SCID [non-obese diabetic severe combined immunodeficient] IL2r-γ-null, bred in house). The tumours were grown for 2 wk until they reached 5-7 mm in diameter. […] Sixty minutes after injection, the mice were anesthetized with isoflurane and euthanized by carbon dioxide. The organs were harvested, rinsed with saline, blotted dry, and collected in previously weighed tubes. The tubes containing the organs were counted in a Cobra-II γ counter. The tissue weight and associated count per minute were used to calculate the percentage injected dose per gram of tissue (% ID/g). Images were acquired using a multimodality PET/CT system (Inveon; Siemens).

T1 sequence (P30872 whole entry): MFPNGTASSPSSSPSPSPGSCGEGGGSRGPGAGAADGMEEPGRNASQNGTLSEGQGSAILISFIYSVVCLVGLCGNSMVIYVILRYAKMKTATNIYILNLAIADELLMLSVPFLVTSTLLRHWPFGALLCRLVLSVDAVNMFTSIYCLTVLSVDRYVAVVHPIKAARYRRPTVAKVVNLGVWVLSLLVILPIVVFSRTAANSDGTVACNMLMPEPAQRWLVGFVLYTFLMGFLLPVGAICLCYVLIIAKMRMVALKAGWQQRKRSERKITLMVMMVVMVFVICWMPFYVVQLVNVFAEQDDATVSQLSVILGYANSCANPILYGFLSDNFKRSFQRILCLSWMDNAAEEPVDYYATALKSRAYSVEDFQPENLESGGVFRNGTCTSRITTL

Molecule: C[C@@H](O)[C@H](NC(=O)[C@@H]1CSSC[C@H](NC(=O)[C@@H](Cc2ccccc2)NC(=O)Cn2cc(C[N+](C)(C)C[B-](F)(F)F)nn2)C(=O)N[C@@H](Cc2ccc(O)cc2)C(=O)N[C@H](Cc2c[nH]c3ccccc23)C(=O)N[C@@H](CCCCN)C(=O)N[C@@H]([C@@H](C)O)C(=O)N1)C(=O)O [AMBF3-TATE]
displacement of binding to sstr1 (sstr1): No significant displacement

half-life ([1]; 19F NMR, read-out: solvolysis t1/2 (converted)): 312 h
half-life ([1]; 19F-NMR, first-order fit (FIG. 10), read-out: half-life of defluoridation): 0.325 h
Molecule: C#CC[N+](C)(C)C[B-](F)(F)F [alkynyl-AMBF3, N-propargyl-N,N-dimethyl-ammoniomethyltrifluoroborate]

Molecule: ^18F-AMBF3-TATE
blocking efficiency (tumour uptake) [2]: 97%
